Source: patent US10626094B2 (La Jolla Institute of Allergy & Immunology, priority 2014, dated 2020)

Biological target: LMPTP-A (Low Molecular Weight Protein Tyrosine Phosphatase-A) enzyme (Homo sapiens (Human), UniProt P24666)
Assay: LMPTP primary screening / LMPTP (OMFP) enzyme inhibition assay, fluorescence intensity
Type: biochemical
Settings: LMPTP-A, OMFP substrate, method of Example 2; read-out: IC50
Procedure: This assay attempts to identify inhibitors of the LMPTP-A (Low Molecular Weight Protein Tyrosine Phosphatase-A) enzyme. It is run in 1536-well format and is measured via fluorescence intensity.
A listing of materials is provided: • Item, source, catalog no. • LMPTP-A Enzyme Stock Solution (4.22 mg/ml or 206.8 μM), SBMRI Protein Facility, • N/A • OMFP, Sigma, M2629-100MG • Bis-Tris pH 6.0, Fisher Sci, BP301-100 • Triton-X 100, Sigma, T9284 • DTT, Sigma, D9779 • Mol. Grade Water, Mediatech, Inc., 46-000-CM • 1536-well black High base opaque bottom plate, Nexus Biosystems, 00019120
Final assay conditions are: • 0.625 nM LMPTP-A Enzyme • 400 μM OMFP • 50 mM Bis-Tris pH 6.0 • 1 mM DTT • 0.01% Triton-X 100 • 20 μM test compound • 3% DMSO (2% from substrate and 1% from compounds) • 6 μL reaction volume • 50 minutes incubation at room temp
Assay Procedure • 1. Prepare Reagents as described in section F. Recipe. • 2. Using LabCyte Echo, transfer 60 nL from 2 mM test compound source plate into assay plate Col. 5-48 (final concentration of test compounds is 20 μM). 60 nL of DMSO should be transferred to col. 1-4 for positive and negative control wells. • 3. Spin plates at 1000 rpm for 1 minute in centrifuge. • 4. […] Using the Bioraptr, add 3 μL/well of enzyme solution to col. 3-48. • 6. Using the Bioraptr, add 3 μL/well of substrate solution to col. 1-48. • 7. Spin plates at 1000 rpm for 1 minute in centrifuge. • 8. Incubate plates in the dark at room temperature for 50 minutes. • 9. Read plates on PerkinElmer Viewlux using a FI protocol.

Sequence of LMPTP-A (Low Molecular Weight Protein Tyrosine Phosphatase-A) enzyme (P24666 whole entry): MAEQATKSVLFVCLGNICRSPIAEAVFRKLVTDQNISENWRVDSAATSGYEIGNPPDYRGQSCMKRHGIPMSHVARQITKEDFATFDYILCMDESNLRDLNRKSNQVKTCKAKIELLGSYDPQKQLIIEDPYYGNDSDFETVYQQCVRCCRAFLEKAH

“2-(3-bromo-4-chloro-2-fluorophenyl)(4-quinolyl)](3-piperidylpropyl)amine [Compound I101]” and `CN(C)c1cc(-c2ccccc2C(F)(F)F)nc2ccccc12` [Compound D2, N,N-dimethyl-2-(2-(trifluoromethyl)phenyl)quinolin-4-amine] fall in the same range of IC50: 0.801 to 5 µM for the first, 0.801 to 5 µM for the second.

First: FC(F)(F)c1ccccc1-c1cc(NCCCN2CCCCC2)c2ccccc2n1 [Compound G1, (3-piperidin-1-yl-propyl)-[2-(2-trifluoromethyl-phenyl)-quinolin-4-yl]-amine]
Second: FC(F)(F)Oc1ccccc1-c1cc(NCCCN2CCCCC2)c2ccccc2n1 [Compound G2, (3-Piperidin-1-yl-propyl)-[2-(2-trifluoromethoxy-phenyl)-quinolin-4-yl]-amine]
The IC50 of the first is higher: 0.801 to 5 µM for the first, 0.2 to 0.8 µM for the second.

`FC(F)(F)Oc1cccc(-c2cc(NCCCN3CCCCC3)c3ccccc3n2)c1` [Compound G3, (3-Piperidin-1-yl-propyl)-[2-(3-trifluoromethoxy-phenyl)-quinolin-4-yl]-amine] and `FC(F)(F)Oc1ccc(-c2cc(NCCCN3CCCCC3)c3ccccc3n2)cc1` [Compound G4, (3-Piperidin-1-yl-propyl)-[2-(4-trifluoromethoxy-phenyl)-quinolin-4-yl]-amine] fall in the same range of IC50: 0.801 to 5 µM for the first, 0.801 to 5 µM for the second.

`CN(C)c1cc(-c2ccc(OC(F)(F)F)cc2)nc2ccccc12` [Compound G5, N,N-dimethyl-2-(4-(trifluoromethoxy)phenyl)quinolin-4-amine] and `Fc1ccccc1-c1cc(NCCCN2CCCCC2)c2ccccc2n1` [Compound G6, [2-(2-Fluoro-phenyl)-quinolin-4-yl]-(3-piperidin-1-yl-propyl)-amine] fall in the same range of IC50: 0.801 to 5 µM for the first, 0.801 to 5 µM for the second.

`Fc1cccc(-c2cc(NCCCN3CCCCC3)c3ccccc3n2)c1` [Compound G7, [2-(3-Fluoro-phenyl)-quinolin-4-yl]-(3-piperidin-1-yl-propyl)-amine] and `Fc1ccc(-c2cc(NCCCN3CCCCC3)c3ccccc3n2)cc1` [Compound G8, [2-(4-Fluoro-phenyl)-quinolin-4-yl]-(3-piperidin-1-yl-propyl)-amine] fall in the same range of IC50: 0.801 to 5 µM for the first, 0.801 to 5 µM for the second.

`Cc1cccc(-c2cc(NCCCN3CCCCC3)c3ccccc3n2)c1` [Compound G9, (3-Piperidin-1-yl-propyl)-(2-m-tolyl-quinolin-4-yl)-amine] and `CN(C)c1ccc(-c2cc(NCCCN3CCCCC3)c3ccccc3n2)cc1` [Compound G10, [2-(4-Dimethylamino-phenyl)-quinolin-4-yl]-(3-piperidin-1-yl-propyl)-amine] fall in the same range of IC50: 0.801 to 5 µM for the first, 0.801 to 5 µM for the second.

First: CN(C)c1ccc(-c2cc(N(C)C)c3ccccc3n2)cc1 [Compound G11, [2-(4-Dimethylamino-phenyl)-quinolin-4-yl]-dimethyl-amine]
Second: c1coc(-c2cc(NCCCN3CCCCC3)c3ccccc3n2)c1 [Compound G12, (2-Furan-2-yl-quinolin-4-yl)-(3-piperidin-1-yl-propyl)-amine]
The IC50 of the first is higher: over 5 µM for the first, 0.801 to 5 µM for the second. The second is the more potent here.

First: CN(C)c1cc(-c2ccco2)nc2ccccc12 [Compound G13, (2-Furan-2-yl-quinolin-4-yl)-dimethyl-amine]
Second: c1ccc2c(NCCCN3CCCCC3)cc(-c3ccoc3)nc2c1 [Compound G14, (2-Furan-3-yl-quinolin-4-yl)-(3-piperidin-1-yl-propyl)-amine]
The IC50 of the first is higher: over 5 µM for the first, 0.801 to 5 µM for the second.

First: CN(C)c1cc(-c2ccoc2)nc2ccccc12 [Compound G15, (2-Furan-3-yl-quinolin-4-yl)-dimethyl-amine]
Second: c1csc(-c2cc(NCCCN3CCCCC3)c3ccccc3n2)c1 [Compound G16, (3-Piperidin-1-yl-propyl)-(2-thiophen-2-yl-quinolin-4-yl)-amine]
The IC50 of the first is higher: over 5 µM for the first, 0.801 to 5 µM for the second. The second is the more potent here.

`CN(C)c1cc(-c2cccs2)nc2ccccc12` [Compound G17, Dimethyl-(2-thiophen-2-yl-quinolin-4-yl)-amine] and `Cn1cc(-c2cc(NCCCN3CCCCC3)c3ccccc3n2)cn1` [Compound G18, [2-(1-Methyl-1H-pyrazol-4-yl)-quinolin-4-yl]-(3-piperidin-1-yl-propyl)-amine] cannot be ordered by IC50: over 5 µM for the first, over 5 µM for the second.

First: CN(C)c1cc(-c2cnn(C)c2)nc2ccccc12 [Compound G19, Dimethyl[2-(1-methylpyrazol-4-yl)(4-quinolyl)]amine]
Second: Cc1nc(C)c(-c2cc(NCCCN3CCCCC3)c3ccccc3n2)s1 [Compound G20]
The IC50 of the first is higher: over 5 µM for the first, 0.801 to 5 µM for the second. The second is the more potent here.

Compared with `Cc1nc(C)c(-c2cc(N(C)C)c3ccccc3n2)s1` [Compound G21, [2-(2,4-Dimethyl-thiazol-5-yl)-quinolin-4-yl]-dimethyl-amine], `c1c[nH]c(-c2cc(NCCCN3CCCCC3)c3ccccc3n2)c1` [Compound G22, (3-Piperidin-1-yl-propyl)-[2-(1H-pyrrol-2-yl)-quinolin-4-yl]-amine] is lower in IC50: over 5 µM for the first, 0.801 to 5 µM for the second. The second is the more potent here.

`CN(C)c1cc(-c2ccc[nH]2)nc2ccccc12` [Compound G23, Dimethyl-[2-(1H-pyrrol-2-yl)-quinolin-4-yl]-amine] and `COc1ccc(-c2cc(NCCCN3CCCCC3)c3cc(C)ccc3n2)cc1` [Compound G24, [2-(4-methoxy-phenyl)-6-methyl-quinolin-4-yl]-(3-piperidin-1-yl-propyl)-amine] cannot be ordered by IC50: over 5 µM for the first, over 5 µM for the second.

`COc1ccc(-c2cc(NCCCN3CCCCC3)c3cc(OC)ccc3n2)cc1` [Compound G25, [6-Methoxy-2-(4-methoxy-phenyl)-quinolin-4-yl]-(3-piperidin-1-yl-propyl)-amine] and `COc1ccc(-c2cc(NCCCN3CCCCC3)c3ccc(OC)cc3n2)cc1` [Compound G26, [7-Methoxy-2-(4-methoxy-phenyl)-quinolin-4-yl]-(3-piperidin-1-yl-propyl)-amine] cannot be ordered by IC50: over 5 µM for the first, over 5 µM for the second.

`COc1ccc(-c2cc(NCCCN3CCCCC3)c3cc(Cl)ccc3n2)cc1` [Compound G27, [6-Chloro-2-(4-methoxy-phenyl)-quinolin-4-yl]-(3-piperidin-1-yl-propyl)-amine] and `COc1ccc(-c2cc(NCCCN3CCCCC3)c3cc(C(F)(F)F)ccc3n2)cc1` [Compound G28, [2-(4-Methoxy-phenyl)-6-trifluoromethyl-quinolin-4-yl]-(3-piperidin-1-yl-propyl)-amine] cannot be ordered by IC50: over 5 µM for the first, over 5 µM for the second.

Compared with `COc1ccc(-c2cc(NCCCN3CCCCC3)c3cc([N+](=O)[O-])ccc3n2)cc1` [Compound G29, [2-(4-Methoxy-phenyl)-6-nitro-quinolin-4-yl]-(3-piperidin-1-yl-propyl)-amine], `COc1ccc(-c2cc(NCCCN3CCCCC3)c3cc(F)ccc3n2)cc1` [Compound G30, [6-Fluoro-2-(4-methoxy-phenyl)-quinolin-4-yl]-(3-piperidin-1-yl-propyl)-amine] is lower in IC50: over 5 µM for the first, 0.801 to 5 µM for the second.

Compared with `COc1ccc(-c2cc(NCCCN3CCCCC3)c3cc(OC(F)(F)F)ccc3n2)cc1` [Compound G31, [2-(4-Methoxy-phenyl)-6-trifluoromethoxy-quinolin-4-yl]-(3-piperidin-1-yl-propyl)-amine], `N#Cc1cccc(Nc2cc(-c3ccccc3C(F)(F)F)nc3ccccc23)c1` [Compound G32, 3-[2-(2-Trifluoromethyl-phenyl)-quinolin-4-ylamino]-benzonitrile] is lower in IC50: over 5 µM for the first, 0.801 to 5 µM for the second. The second is the more potent here.

Compared with `FC(F)(F)c1ccccc1-c1cc(Nc2ccccc2)c2ccccc2n1` [Compound G33, Phenyl-[2-(2-trifluoromethyl-phenyl)-quinolin-4-yl]-amine], `Fc1ccc(Nc2cc(-c3ccccc3C(F)(F)F)nc3ccccc23)cc1` [Compound G34, (4-Fluoro-phenyl)-[2-(2-trifluoromethyl-phenyl)-quinolin-4-yl]-amine] is lower in IC50: over 5 µM for the first, 0.801 to 5 µM for the second.

First: COc1ccc(-c2cc(Nc3ccccc3)c3ccccc3n2)cc1 [Compound G35, [2-(4-Methoxy-phenyl)-quinolin-4-yl]-phenyl-amine]
Second: COc1ccc(-c2cc(Nc3ccccc3C(F)(F)F)c3ccccc3n2)cc1 [Compound G36, [2-(4-Methoxy-phenyl)-quinolin-4-yl]-(2-trifluoromethyl-phenyl)-amine]
The IC50 of the first is lower: 0.801 to 5 µM for the first, over 5 µM for the second. The first is the more potent here.

First: COc1ccc(-c2cc(Nc3cccc(C(F)(F)F)c3)c3ccccc3n2)cc1 [Compound G37, [2-(4-Methoxy-phenyl)-quinolin-4-yl]-(3-trifluoromethyl-phenyl)-amine]
Second: COc1ccc(-c2cc(Nc3cccc(C#N)c3)c3ccccc3n2)cc1 [Compound G38, 3-[2-(4-Methoxy-phenyl)-quinolin-4-ylamino]-benzonitrile]
The IC50 of the first is higher: over 5 µM for the first, 0.2 to 0.8 µM for the second.

`COc1ccc(-c2cc(Nc3ccc(F)cc3)c3ccccc3n2)cc1` [Compound G39, (4-fluorophenyl)[2-(4-methoxyphenyl)(4-quinolyl)]amine] and `COc1ccc(-c2cc(Nc3ccc(Cl)cc3)c3ccccc3n2)cc1` [Compound G40, (4-chlorophenyl)[2-(4-methoxyphenyl)(4-quinolyl)]amine] fall in the same range of IC50: 0.801 to 5 µM for the first, 0.801 to 5 µM for the second.

`COc1ccc(-c2cc(Nc3ccc(Br)cc3)c3ccccc3n2)cc1` [Compound G41, (4-bromophenyl)[2-(4-methoxyphenyl)(4-quinolyl)]amine] showed an IC50 of 0.801 to 5 µM.
